Numbered stars: 1 amine (or outer) side, 2 acyl side, 3 side chain; on linkers, the order of the positions; unused ones are H or OH. Square brackets hold non-standard residues; d marks the D form. Peptide text beside a SMILES is read from it. * marks the point of attachment. NH(2S-methylbutyl) = CC[C@H](C)CN*; 2Naphthoyl = O=C(c1ccc2ccccc2c1)*; X1 = O=C(Cc1ccc(N[*:1])cc1)[*:2]; PhAc = O=C(Cc1ccccc1)*; X2 = CCC[C@H](C)CN*
Columns and labels:
[1] = biological target: T1, Atrial natriuretic peptide receptor 3 (Homo sapiens, UniProt P17342); experiment: Displacement of [125I]- ANP from the Atrial Natriuretic Peptide Clearance Receptor.; format: tissue-based, Cardiac atrium
T1 sequence (P17342 whole entry): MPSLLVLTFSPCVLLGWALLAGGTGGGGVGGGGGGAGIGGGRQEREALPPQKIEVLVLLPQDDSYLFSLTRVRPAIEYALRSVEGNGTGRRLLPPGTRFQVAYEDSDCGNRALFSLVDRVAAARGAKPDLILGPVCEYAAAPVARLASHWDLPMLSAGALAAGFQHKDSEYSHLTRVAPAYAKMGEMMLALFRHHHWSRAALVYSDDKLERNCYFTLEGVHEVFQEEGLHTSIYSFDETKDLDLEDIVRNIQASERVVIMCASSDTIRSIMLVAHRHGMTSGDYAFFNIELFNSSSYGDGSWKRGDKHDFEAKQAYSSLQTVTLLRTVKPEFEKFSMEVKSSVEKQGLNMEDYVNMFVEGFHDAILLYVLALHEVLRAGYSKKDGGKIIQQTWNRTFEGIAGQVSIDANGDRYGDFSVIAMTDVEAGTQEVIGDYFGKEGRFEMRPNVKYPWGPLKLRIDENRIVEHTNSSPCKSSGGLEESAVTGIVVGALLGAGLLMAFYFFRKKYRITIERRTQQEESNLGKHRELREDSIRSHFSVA

[2] = biological target: T2, Atrial natriuretic peptide receptor 1 (Homo sapiens, UniProt P16066); experiment: Displacement of [125I]- ANP from the Atrial natriuretic peptide receptor A.; format: tissue-based, Cardiac atrium
T2 sequence (P16066 whole entry): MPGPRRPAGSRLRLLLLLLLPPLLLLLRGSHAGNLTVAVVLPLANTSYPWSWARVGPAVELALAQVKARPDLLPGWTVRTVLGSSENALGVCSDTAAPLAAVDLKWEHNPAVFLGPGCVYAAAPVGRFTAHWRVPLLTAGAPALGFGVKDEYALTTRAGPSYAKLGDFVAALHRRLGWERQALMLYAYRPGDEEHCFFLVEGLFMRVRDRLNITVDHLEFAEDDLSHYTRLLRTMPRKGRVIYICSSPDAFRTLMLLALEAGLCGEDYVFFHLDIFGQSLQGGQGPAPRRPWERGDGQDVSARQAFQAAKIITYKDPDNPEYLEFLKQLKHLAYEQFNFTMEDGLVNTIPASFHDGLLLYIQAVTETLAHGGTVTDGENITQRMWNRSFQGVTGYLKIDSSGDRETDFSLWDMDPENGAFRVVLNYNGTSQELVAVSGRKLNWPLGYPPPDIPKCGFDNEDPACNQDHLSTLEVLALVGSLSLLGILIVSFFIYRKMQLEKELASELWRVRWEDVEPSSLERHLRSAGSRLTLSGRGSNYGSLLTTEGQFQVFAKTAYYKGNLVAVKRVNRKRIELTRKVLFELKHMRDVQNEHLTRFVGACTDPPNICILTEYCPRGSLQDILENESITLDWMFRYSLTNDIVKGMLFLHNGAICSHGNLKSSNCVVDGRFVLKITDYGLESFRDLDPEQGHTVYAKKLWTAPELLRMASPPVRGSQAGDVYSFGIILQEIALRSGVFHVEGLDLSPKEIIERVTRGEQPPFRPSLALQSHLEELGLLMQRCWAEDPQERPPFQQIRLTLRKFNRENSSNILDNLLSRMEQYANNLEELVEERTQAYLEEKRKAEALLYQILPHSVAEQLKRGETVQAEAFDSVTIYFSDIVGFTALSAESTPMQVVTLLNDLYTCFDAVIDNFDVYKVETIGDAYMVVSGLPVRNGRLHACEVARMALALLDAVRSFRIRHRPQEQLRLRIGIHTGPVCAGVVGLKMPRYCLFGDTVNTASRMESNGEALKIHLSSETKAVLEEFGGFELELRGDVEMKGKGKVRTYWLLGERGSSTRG

[3] = Ratio of binding affinity for ANP-CR receptor and ANP-A receptor

Compound: CC[C@H](C)[C@@H]1NC(=O)[C@H](C)NC(=O)CNC(=O)CNC(=O)[C@H](Cc2ccccc2)NC(=O)[C@H](N)CSSC[C@H](C(=O)O)NC(=O)CNC(=O)[C@H](CC(C)C)NC(=O)CNC(=O)[C@H](CO)NC(=O)[C@H](CCC(N)=O)NC(=O)[C@H](C)NC(=O)CNC(=O)[C@H]([C@@H](C)CC)NC(=O)[C@H](CCCN=C(N)N)NC(=O)[C@H](CC(=O)O)NC1=O
- Ki [1]: 0.49 nM
- Ki [2]: 0.49 nM

Compound: CC[C@H](C)[C@@H]1NC(=O)[C@H](CCCNC(=N)N)NC(=O)[C@H](CC(=O)O)NC(=O)[C@H]([C@@H](C)CC)NC(=O)[C@H](CCCNC(=N)N)NC(=O)CNC(=O)CNC(=O)[C@H](Cc2ccccc2)NC(=O)[C@@H](NC(=O)[C@H](CO)NC(=O)[C@H](CO)NC(=O)[C@@H](N)CCCNC(=N)N)CSSC[C@@H](C(=O)O)NC(=O)[C@H](C)NC(=O)CNC1=O
- Ki [1]: 1.64 nM

Compound: CC[C@H](C)[C@@H]1NC(=O)[C@H](CCCN=C(N)N)NC(=O)[C@H](CC(=O)O)NC(=O)[C@H]([C@@H](C)CC)NC(=O)[C@H](CCCN=C(N)N)NC(=O)CNC(=O)CNC(=O)[C@H](Cc2ccccc2)NC(=O)[C@H](NC(=O)[C@H](CO)NC(=O)[C@H](CO)NC(=O)[C@@H](N)CCCN=C(N)N)CSSC[C@H](C(=O)O)NC(=O)[C@H](C)NC(=O)CNC1=O
- Ki [2]: > 10 nM
- Selectivity [3]: 6100

Compound: CC[C@H](C)[C@@H]1NC(=O)[C@H](CCCN=C(N)N)NC(=O)[C@H](C)NC(=O)[C@H]([C@@H](C)CC)NC(=O)[C@H](CCCN=C(N)N)NC(=O)CNC(=O)CNC(=O)[C@H](Cc2ccccc2)NC(=O)[C@H](N)CSSC[C@H](C(=O)O)NC(=O)CNC(=O)[C@H](CC(C)C)NC(=O)CNC(=O)[C@H](CO)NC(=O)[C@H](CCC(N)=O)NC(=O)[C@H](C)NC(=O)CNC1=O
- Ki [1]: 87 nM
- Ki [2]: 87 nM

Compound: CC[C@H](C)CNC(=O)[C@H](C)NC(=O)[C@H](CC(=O)O)NC(=O)[C@@H](NC(=O)[C@H](C)NC(=O)Cc1ccc(NC(=O)c2ccc3ccccc3c2)cc1)[C@@H](C)CC (2Naphthoyl-[X1]AIDA-{NH(2S-methylbutyl)})
- Ki [1]: 65 nM
- Ki [2]: 65 nM

Compound: CC[C@H](C)CNC(=O)[C@H](CCCN=C(N)N)NC(=O)[C@H](CC(=O)O)NC(=O)[C@@H](NC(=O)[C@H](C)NC(=O)Cc1ccc(NC(=O)c2ccc3ccccc3c2)cc1)[C@@H](C)CC (2Naphthoyl-[X1]AIDR-{NH(2S-methylbutyl)})
- Ki [1]: 0.3 nM
- Ki [2]: 0.3 nM

Compound: CC[C@H](C)CNC(=O)[C@H](CCCN=C(N)N)NC(=O)[C@H](CC(=O)O)NC(=O)[C@H](C)NC(=O)[C@H](CCCN=C(N)N)NC(=O)Cc1ccc(NC(=O)c2ccc3ccccc3c2)cc1 (2Naphthoyl-[X1]RADR-{NH(2S-methylbutyl)})
- Ki [1]: 680 nM
- Ki [2]: 680 nM

Compound: CC[C@H](C)CNC(=O)[C@H](CCCNC(=N)N)NC(=O)[C@H](C)NC(=O)[C@@H](NC(=O)[C@H](CCCNC(=N)N)NC(=O)Cc1ccc(NC(=O)c2ccc3ccccc3c2)cc1)[C@@H](C)CC (2Naphthoyl-[X1]RIAR-{NH(2S-methylbutyl)})
- Ki [1]: 62 nM
- Ki [2]: 62 nM

Compound: CC[C@H](C)CNC(=O)[C@H](C)NC(=O)[C@H](CC(=O)O)NC(=O)[C@@H](NC(=O)[C@H](CCCN=C(N)N)NC(=O)Cc1ccc(NC(=O)c2ccc3ccccc3c2)cc1)[C@@H](C)CC (2Naphthoyl-[X1]RIDA-{NH(2S-methylbutyl)})
- Ki [1]: 0.4 nM
- Ki [2]: 0.4 nM

Compound: CC[C@H](C)[C@H](NC(=O)[C@H](CCCNC(=N)N)NC(=O)Cc1ccc(NC(=O)c2ccc3ccccc3c2)cc1)C(=O)N[C@@H](CC(=O)O)C(=O)N[C@@H](CCCNC(=N)N)C(N)=O (2Naphthoyl-[X1]RIDR-NH2)
- Ki [1]: 2600 nM
- Ki [2]: 2600 nM

Compound: CC[C@H](C)CNC(=O)[C@H](CCCN=C(N)N)NC(=O)[C@H](CC(=O)O)NC(=O)[C@@H](NC(=O)[C@H](CCCN=C(N)N)NC(=O)Cc1ccc(NC(=O)c2ccc3ccccc3c2)cc1)[C@@H](C)CC (2Naphthoyl-[X1]RIDR-{NH(2S-methylbutyl)})
- Ki [1]: 0.48 nM
- Ki [2]: > 10 nM
- Selectivity [3]: > 20000

Compound: CCC[C@H](C)CNC(=O)[C@H](CCCNC(=N)N)NC(=O)[C@H](CC(=O)O)NC(=O)[C@@H](NC(=O)[C@H](CCCNC(=N)N)NC(C)=O)[C@@H](C)CC (Ac-RIDR-X2)
- Ki [1]: 2900 nM
- Ki [2]: 2900 nM

Compound: CCC[C@H](C)CNC(=O)[C@H](CCCN=C(N)N)NC(=O)[C@H](CC(=O)O)NC(=O)[C@@H](NC(=O)[C@H](CCCN=C(N)N)NC(=O)Cc1ccccc1)[C@@H](C)CC (PhAc-RIDR-X2)
- Ki [1]: 539 nM
- Ki [2]: 539 nM

— ChEMBL document CHEMBL1133291, “The discovery of non-basic atrial natriuretic peptide clearance receptor antagonists. Part 1” (Bioorg Med Chem Lett, 2000)
